Consider two compounds from patent US20220389049A1, “REVERSIBLE TERMINATORS FOR DNA SEQUENCING AND METHODS OF USING THE SAME” (Centrillion Technologies, Inc., priority 2019, published 2022).

One data set relates to DNA polymerase ("CENT1"). The experiment in a line: Enzymatic incorporation and cleavage studies: primer extension with compound 5 into a growing DNA chain (FIG. 2). It is filed as biochemical. The source says: Enzymatic Incorporation and Cleavage Studies: (2R,3S,5R)-2-(((hydroxy((hydroxy(phosphonooxy)phosphoryl)oxy)phosphoryl)oxy)methyl)-5-(5-methyl-2,4-dioxo-3,4-dihydropyrimidin-1(2H)-yl)tetrahydrofuran-3-yl 3-azidopropanoate (5), a model compound, was synthesized similar to conditions of the relevant reactions disclosed in Scheme 1.

The nature of data set [1]: Chemical cleavage of the 3′O-blocking group of the free triphosphate by reducing reagent. The format is physicochemical. Conditions: heating with THPP or TCEP in 1×TE buffer at 55° C. for 5 min. As for the experimental part:
Cleavage of 3′O-[dithio-1-butynyl)-methyl)-thymidine triphosphate (15): The 3′O-bolcking group, alkyne dithioalkynemethyl ether from triphosphate 15 was cleaved by heating with 1, 4-dithiothreitol or (DTT) or tris(2-carboxyethyl) phosphine (TCEP) in 1×TE buffer (pH 9.5) at 55 degree Celsius for 5 min to afford thymidine triphosphate as shown in the Scheme 5.

A further data set relates to growing DNA chain. The experiment in a line: Enzymatic incorporation: primer extension with compound 15 into a growing DNA chain (FIG. 3). It is filed as biochemical. The following applies: FIG. 3 lanes 3, 4, 6 and 7.

In the case of `Cc1cn([C@H]2C[C@@H](OC(=O)CCN=[N+]=[N-])[C@@H](COP(=O)(O)OP(=O)(O)OP(=O)(O)O)O2)c(=O)[nH]c1=O` [compound 5, 3′O-(3-azidopropionyl)-thymidine triphosphate], in the data set on DNA polymerase ("CENT1") ("runaway" reaction in the presence of all four unmodified dNTPs and a polymerase, FIG. 2 lane 4), the “blockage of further extension after incorporation of the terminator” value is reported as “blockage of further extension”. The “cleavage of the label and the blocking group after incorporation” value in the data set with DNA polymerase ("CENT1") (FIG. 2 lane 5) was “cleavage of the label and the blocking group”. Moreover, in the data set with DNA polymerase ("CENT1") (FIG. 2 lane 6), the “further extension by the next base added after the cleavage” value is on record as “further extension by the next base added”. The enzymatic incorporation result in the data set on DNA polymerase ("CENT1") (in the presence of DNA polymerase ("CENT1"), FIG. 2 lane 3) is recorded as “can be used in enzymatic incorporation”. Also, the “cleavage of the 3′O-azidoalkanoate” value in data set [1] is on record as “neatly cleaved”.
As to `C#CCCCSSCO[C@@H]1C[C@H](n2cc(C)c(=O)[nH]c2=O)O[C@@H]1COP(=O)(O)OP(=O)(O)OP(=O)(O)O` [compound 15], in the data set with growing DNA chain, the enzymatic incorporation result was “excellent enzymatic incorporation”.
